According to patent US9296741B2, “Bromodomain inhibitors” (priority 2012, dated 2016):

Legend:
[1] = Mouse liver microsome stability assay; type: in vitro ADME; conditions: male, CD1, mouse, microsomes, pH 7.4
[2] = test system: LPS induced IL-6 production; test: LPS (lipopolysaccharide) induced IL-6 production mouse assay; type: in vivo; conditions: 1 h before LPS, serum IL-6 2 h after LPS; for inhibition in vivo at 3 mg/kg: Mus musculus, read-out: Inhibition of LPS induced IL-6 production in Mice, % inhibition at 3 mg/kg, 3 mg/kg oral
[3] = test system: breast cancer cell line MX-1; test: MX-1 cell line proliferation assay; type: cell-based, human; conditions: Homo sapiens, MX1, 72 h; MX-1 cells, 3-day proliferation, Cell Titer Glo; read-out: Cellular proliferation: EC50
[4] = molecular target: human BRD4 first bromodomain (BDI_K57-E168) (Homo sapiens (Human), UniProt O60885); test: TR-FRET bromodomain binding assay, BRD4 first bromodomain
[5] = Human liver microsome stability assay; type: in vitro ADME; conditions: both sexes, human, microsomes, pH 7.4
[6] = molecular target: human BRD4 second bromodomain (BDII_E352-M457) (Homo sapiens (Human), UniProt O60885); test: TR-FRET bromodomain binding assay, BRD4 second bromodomain
[7] = Rat liver microsome stability assay; type: in vitro ADME; conditions: rat liver microsomes (male Sprague-Dawley), 0.5 μM test compound, 0.25 mg/mL microsomal protein, pH 7.4, 37° C.; read-out: Stability in rat liver microsomes (t1/2 in minutes)

half-life at 0.5 μM [1] [min] | EC50 [3] [nM] | Ki [4] [nM] | half-life at 0.5 μM [5] [min] | Ki [6] [nM] | half-life at 0.5 μM [7] [min] | Compound | Inhibition of LPS induced IL-6 production in Mice, % inhibition at 50 mg/kg ([2]; 50 mg/kg oral) [% at 50 mg/kg] | inhibition in vivo at 3 mg/kg [2] [%] | Inhibition of LPS induced IL-6 production in Mice, % inhibition at 30 mg/kg ([2]; 30 mg/kg oral) [% at 30 mg/kg]
24 | 31 | 15 | 100 | 6.4 | 6 | Cn1cc(-c2cc(NS(=O)(=O)CC(F)(F)F)ccc2Oc2ccccc2)c2cc[nH]c2c1=O [Example 5, 2,2,2-trifluoro-N-[3-(6-methyl-7-oxo-6,7-dihydro-1H-pyrrolo[2,3-c]pyridin-4-yl)-4-phenoxyphenyl]ethanesulfonamide] | 74 | – | –
27 | 34.2 | 1.8 | 48 | 2.4 | 19 | Cn1cc(-c2cc(NS(C)(=O)=O)ccc2Oc2cccnc2)c2cc[nH]c2c1=O [Example 11, N-[3-(6-methyl-7-oxo-6,7-dihydro-1H-pyrrolo[2,3-c]pyridin-4-yl)-4-(pyridin-3-yloxy)phenyl]methanesulfonamide] | – | 34 | –
32 | 83.3 | 16 | 24 | 7.5 | 82 | Cn1cc(-c2cc(NS(C)(=O)=O)ccc2Oc2ccccc2C(F)(F)F)c2cc[nH]c2c1=O [Example 32, N-{3-(6-methyl-7-oxo-6,7-dihydro-1H-pyrrolo[2,3-c]pyridin-4-yl)-4-[2-(trifluoromethyl)phenoxy]phenyl}methanesulfonamide] | – | 69 | –
35 | 26.8 | 3.5 | 37 | 2.1 | 42 | Cn1cc(-c2cc(NS(C)(=O)=O)ccc2Oc2ccc(F)cc2Cl)c2cc[nH]c2c1=O [Example 34, N-[4-(2-chloro-4-fluorophenoxy)-3-(6-methyl-7-oxo-6,7-dihydro-1H-pyrrolo[2,3-c]pyridin-4-yl)phenyl]methanesulfonamide] | – | 78 | –
35 | 23.5 | 2.3 | 37 | 3.3 | 32 | Cn1cc(-c2cc(NS(C)(=O)=O)ccc2Oc2ccc(F)c(F)c2)c2cc[nH]c2c1=O [Example 48, N-[4-(3,4-difluorophenoxy)-3-(6-methyl-7-oxo-6,7-dihydro-1H-pyrrolo[2,3-c]pyridin-4-yl)phenyl]methanesulfonamide] | – | 62 | –
46 | 19.6 | 1.7 | 71 | 1.5 | 51 | Cn1cc(-c2cc(NS(C)(=O)=O)ccc2Oc2c(F)cc(F)cc2F)c2cc[nH]c2c1=O [Example 49, N-[3-(6-methyl-7-oxo-6,7-dihydro-1H-pyrrolo[2,3-c]pyridin-4-yl)-4-(2,4,6-trifluorophenoxy)phenyl]methanesulfonamide] | – | 57 | –
36 | 251 | 12.2 | 39 | 2.4 | 30 | Cn1cc(-c2cc(C(=O)N3CCOCC3)ccc2Oc2ccc(F)cc2F)c2cc[nH]c2c1=O [Example 56, 4-[2-(2,4-difluorophenoxy)-5-(morpholin-4-ylcarbonyl)phenyl]-6-methyl-1,6-dihydro-7H-pyrrolo[2,3-c]pyridin-7-one] | – | 28 | –
23 | 18.7 | 0.84 | > 120 | 1.6 | 40 | Cn1cc(-c2cc(NS(C)(=O)=O)ccc2OC2CCC(F)(F)CC2)c2cc[nH]c2c1=O [Example 59, N-{4-[(4,4-difluorocyclohexyl)oxy]-3-(6-methyl-7-oxo-6,7-dihydro-1H-pyrrolo[2,3-c]pyridin-4-yl)phenyl}methanesulfonamide] | – | 54 | –
25 | 7.9 | 3 | 64 | 1.9 | 45 | CCS(=O)(=O)Nc1ccc(Oc2c(F)cc(F)cc2F)c(-c2cn(C)c(=O)c3[nH]ccc23)c1 [Example 62, N-[3-(6-methyl-7-oxo-6,7-dihydro-1H-pyrrolo[2,3-c]pyridin-4-yl)-4-(2,4,6-trifluorophenoxy)phenyl]ethanesulfonamide] | – | 67 | –
11 | 25.5 | 11.6 | 88 | 4.9 | > 120 | CNS(=O)(=O)Nc1ccc(Oc2ccc(F)cc2F)c(-c2cn(C)c(=O)c3[nH]ccc23)c1 [Example 65, N-[4-(2,4-difluorophenoxy)-3-(6-methyl-7-oxo-6,7-dihydro-1H-pyrrolo[2,3-c]pyridin-4-yl)phenyl]-N′-methylsulfuric diamide] | – | 63 | –
31 | 62 | 9.1 | 62 | 6.1 | 2 | Cn1nc(-c2cc(NS(C)(=O)=O)ccc2Oc2ccccc2)c2cc[nH]c2c1=O [Example 80, N-[3-(6-methyl-7-oxo-6,7-dihydro-1H-pyrrolo[2,3-d]pyridazin-4-yl)-4-phenoxyphenyl]methanesulfonamide] | – | – | 69
> 120 | 231 | 1.67 | 112 | 0.65 | 92 | CCS(=O)(=O)Nc1ccc(Oc2ccc(C(N)=O)cc2)c(-c2cn(C)c(=O)c3[nH]ccc23)c1 [Example 84, 4-{4-[(ethylsulfonyl)amino]-2-(6-methyl-7-oxo-6,7-dihydro-1H-pyrrolo[2,3-c]pyridin-4-yl)phenoxy}benzamide] | – | 69 | –
34 | 52 | 6.4 | 43 | 1.7 | 6 | Cn1cc(-c2cc(S(C)(=O)=O)ccc2Oc2ccccc2)c2cc[nH]c2c1=O [Example 85, 6-methyl-4-[5-(methylsulfonyl)-2-phenoxyphenyl]-1,6-dihydro-7H-pyrrolo[2,3-c]pyridin-7-one] | – | 80 | –
45 | 85.1 | 16.7 | 52 | 9.5 | 51 | Cn1cc(-c2cc(S(C)(=O)=O)ccc2Oc2ccc(F)cc2F)c2cc[nH]c2c1=O [Example 138, 4-[2-(2,4-difluorophenoxy)-5-(methylsulfonyl)phenyl]-6-methyl-1,6-dihydro-7H-pyrrolo[2,3-c]pyridin-7-one] | – | 72 | –
17 | 76.9 | 13.6 | 18 | 17.8 | 19 | CCS(=O)(=O)Nc1ccc(OCC(C)(C)C)c(-c2cn(C)c(=O)c3[nH]ccc23)c1 [Example 144, N-[4-(2,2-dimethylpropoxy)-3-(6-methyl-7-oxo-6,7-dihydro-1H-pyrrolo[2,3-c]pyridin-4-yl)phenyl]ethanesulfonamide] | – | 48 | –
32 | 14.8 | 2.1 | 11 | 1.1 | 8 | Cn1cc(-c2cc(S(C)(=O)=O)ccc2NC2CCCCC2)c2cc[nH]c2c1=O [Example 147, 4-[2-(cyclohexylamino)-5-(methylsulfonyl)phenyl]-6-methyl-1,6-dihydro-7H-pyrrolo[2,3-c]pyridin-7-one] | – | 61 | –
55 | 9.3 | 1.3 | – | 1.6 | – | CCS(=O)(=O)c1ccc(OCC2CC2)c(-c2cn(C)c(=O)c3[nH]ccc23)c1 [Example 198, 4-[2-(cyclopropylmethoxy)-5-(ethylsulfonyl)phenyl]-6-methyl-1,6-dihydro-7H-pyrrolo[2,3-c]pyridin-7-one] | – | 66 | –
> 120 | 42.6 | – | > 120 | – | 36 | Cn1cc(-c2cc(CS(C)(=O)=O)ccc2NCC2CC2)c2cc[nH]c2c1=O [Example 328, 4-{2-[(cyclopropylmethyl)amino]-5-[(methylsulfonyl)methyl]phenyl}-6-methyl-1,6-dihydro-7H-pyrrolo[2,3-c]pyridin-7-one] | – | 40 | –
> 120 | 17.1 | – | > 120 | – | > 120 | Cn1cc(-c2cc(S(C)(=O)=O)ccc2NCC2CC2)c2cc[nH]c2c1=O [Example 329, 4-{2-[(cyclopropylmethyl)amino]-5-(methylsulfonyl)phenyl}-6-methyl-1,6-dihydro-7H-pyrrolo[2,3-c]pyridin-7-one] | – | 63 | –
